Tests used:
[1] = system: cleaved PARP, XIAP and cIAP2 in MiaPaca-2 cells; assay: Western blot of apoptosis markers and inhibitors of apoptosis, MiaPaca-2; format: cell-based, human; conditions: for XIAP and c-IAP2 protein levels: 24 h
Procedure: (§1) Pancreatic cells were collected after trypsinization and seeded in 12-well plates for 24 h before treatments. Treatments were performed as described in the Figure legends. Following treatment, whole cell lysates were collected in Laemmli buffer and analyzed by Western blot. The following primary antibodies were used: XIAP, c-IAP2, cleaved PARP, Caspase-3 (all from Cell Signaling), actin (Santa Cruz) and LHRHR (Abcam).
(§2) Western blot analysis. Actin, GAPDH and Ponceau staining were used as loading controls. Gemcitabine was diluted in water. Curcumin and LHRH-curcumin were diluted in DMSO. Cells were treated as follows:
(§3) Western blot analysis. Actin, GAPDH and Ponceau staining were used as loading controls. Gemcitabine was diluted in water. Curcumin and LHRH-curcumin were diluted in DMSO. The cells were treated as follows:
(§4) Western blot analysis. Actin was used as loading control. Both gemcitabine and LHRH-curcumin were diluted in water.

[2] = system: cleaved PARP, XIAP and cIAP2 in Panc-1 cells; assay: Western blot of apoptosis markers and inhibitors of apoptosis, Panc-1; format: cell-based; conditions: for XIAP and c-IAP2 protein levels: 24 h
Procedure: as §1, §2, §3, §4

[3] = system: cleaved PARP, XIAP and cIAP2 in AsPC-1 cells; assay: Western blot of apoptosis markers and inhibitors of apoptosis, AsPC-1; format: cell-based; conditions: for XIAP and c-IAP2 protein levels: 24 h
Procedure: as §1, §2
(§5) Western blot analysis. Actin, GAPDH and Ponceau staining were used as loading controls. Gemcitabine was diluted in water. Curcumin and LHRH-curcumin were diluted in DMSO.

[4] = system: cleaved PARP, XIAP and cIAP2 in BxPC-3 cells; assay: Western blot of apoptosis markers and inhibitors of apoptosis, BxPC-3; format: cell-based; conditions: for XIAP and c-IAP2 protein levels: 24 h
Procedure: as §1, §2, §5

[5] = system: XIAP, cIAP1 and cIAP2 mRNA in Panc-1 cells; assay: Quantitative PCR of inhibitors of apoptosis, Panc-1; format: cell-based; conditions: 50 uM, 24 h post-treatment, relative to DMSO, GAPDH reference
Procedure: mRNA levels of XIAP, c-IAP1 and c-IAP2 were determined by quantitative real-time PCR using the SYBR Green Real-Time PCR Master Mix form ThermoFisher. Thermal cycling was carried out using the CFX system from BioRad under the following conditions: 95° C. for 10 min and 40 cycles at 95° C. for 15 s and 55° C. for 60 s. mRNA expression for any given gene is represented as comparative to the DMSO-treated cells. GAPDH was used as the housekeeping gene of reference.
GAPDH was used as a reference. Results presented in FIG. 12A (XIAP relative mRNA levels), FIG. 12B (cIAP1 relative mRNA levels), FIG. 12C (cIAP2 relative mRNA levels).

[6] = system: Panc-1 cells spheroids; assay: 3D spheroid growth (IncuCyte ZOOM), Panc-1; format: cell-based; conditions: LHRH 30 μM, LHRH-curcumin 30 μM
Procedure: A protocol that enables the growth of identical size single cancer cell spheroids in Matrigel in 96 well plates has been developed.
Panc-1 and Mia-Paca-2 cells were grown in 10% FBS DMEM. Cells were collected after trypsinization and resuspended in phenol-red free DMEM with 10% FBS. Cells were labeled with CellTracker Red (Life Techmologies) for 5 minutes. After labeling cells were washed with PBS and transfer into 96-well Corning 7007 ULA round bottom plates at 1,000 cells/well in 100 μl phenol-red free media with 10% FBS and 5% Matrigel. […] Spheroids were grown at 37° C. and 5% CO2 in IncuCyte ZOOM (Essen Bioscience). Images were acquired every 4 h for a period of 120 h post-treatment and software analysis was design to identify the red object in the well. The data were expressed as fold increase in spheroids size at the end of the treatment using the “average red object area in the well” as determined by the IncuCyte software analysis. Reproducibility was confirmed in three independent experiments. Spheroids grew at a uniform rate (FIG. 1).

[7] = system: non-target control (NT) Panc-1 spheroides; assay: 3D spheroid growth, non-target control (NT) Panc-1; format: cell-based; conditions: 30 μM
[8] = 50 uM in the presence of gemcitabine (5 uM)
[9] = curcumin, LHRH-curcumin 50 uM and 100 uM alone, gemcitabine alone
[10] = 24 h post-treatment, curcumin, LHRH-curcumin 10-100 uM, gemcitabine 1-20 uM

| Compound | XIAP and c-IAP2 protein levels [1, 8] | XIAP and c-IAP2 protein levels [1, 9] | apoptosis marker cleaved PARP [1, 10] | XIAP and c-IAP2 protein levels [2, 8] | XIAP and c-IAP2 protein levels [2, 9] | apoptosis marker cleaved PARP [2, 10] | XIAP and c-IAP2 protein levels [3, 8] | XIAP and c-IAP2 protein levels [3, 9] | apoptosis marker cleaved PARP [3, 10] | XIAP and c-IAP2 protein levels [4, 8] | XIAP and c-IAP2 protein levels [4, 9] | apoptosis marker cleaved PARP [4, 10] | mRNA levels of XIAP, cIAP1 and c-IAP2 [5] | spheroids growth [6] | spheroids growth [7] |
| --- | --- | --- | --- | --- | --- | --- | --- | --- | --- | --- | --- | --- | --- | --- | --- |
| COc1cc(/C=C/C(=O)CC(=O)/C=C/c2ccc(O)c(OC)c2)ccc1O [curcumin] | down-regulated | down-regulated | initiate apoptosis as illustrated by the presence of cleaved PARP | down-regulated | down-regulated | initiate apoptosis as illustrated by the presence of cleaved PARP | down-regulated | down-regulated | initiate apoptosis as illustrated by the presence of cleaved PARP | down-regulated | down-regulated | initiate apoptosis as illustrated by the presence of cleaved PARP | down-regulated | – | – |
| luteinizing hormone releasing hormone (EHWSYGLRPG) [LHRH, Gonadotropin-releasing hormone (GnRH, also called luteinizing hormone releasing hormone or LHRH), reference compound] | – | – | – | – | – | – | – | – | – | – | – | – | – | inhibitory effect on spheroids growth | inhibitory effect on NT Panc-1 spheroids growth |
